# Experimental data published in ChEMBL document CHEMBL1201862, “PubChem BioAssay data set” (2004).
# Activity calls are given as the source filed them.
# What was measured:
# [1] = target: Voltage-gated inwardly rectifying potassium channel KCNH2 (Homo sapiens, UniProt Q12809); conditions: Potency;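 note: confirmatory quantitative high-throughput screen measuring inhibition of hERG channel activity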
# [2] = target: T1, CAAX prenyl protease 2 (Saccharomyces cerevisiae S288c, UniProt Q03530); assay type: biochemical
# T1 sequence (Q03530 whole entry): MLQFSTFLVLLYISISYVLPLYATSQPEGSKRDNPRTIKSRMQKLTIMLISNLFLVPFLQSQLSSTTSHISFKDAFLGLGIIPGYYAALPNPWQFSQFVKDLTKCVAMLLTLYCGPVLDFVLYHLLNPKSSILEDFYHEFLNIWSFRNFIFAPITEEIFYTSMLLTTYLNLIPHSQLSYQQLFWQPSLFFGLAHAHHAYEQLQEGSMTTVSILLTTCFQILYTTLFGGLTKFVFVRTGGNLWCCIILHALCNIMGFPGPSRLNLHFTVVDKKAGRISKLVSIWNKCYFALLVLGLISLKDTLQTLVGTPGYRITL
# [3] = target: CAAX prenyl protease 2 (Homo sapiens, UniProt Q9Y256); test: human Rce1 protease inhibitors, dose response, biochemical, yeast membranes, quenched-peptide fluorescence, cherry-pick (AID 588849)
# Chain of CAAX prenyl protease 2 (Homo sapiens, UniProt Q9Y256) (Q9Y256 whole entry): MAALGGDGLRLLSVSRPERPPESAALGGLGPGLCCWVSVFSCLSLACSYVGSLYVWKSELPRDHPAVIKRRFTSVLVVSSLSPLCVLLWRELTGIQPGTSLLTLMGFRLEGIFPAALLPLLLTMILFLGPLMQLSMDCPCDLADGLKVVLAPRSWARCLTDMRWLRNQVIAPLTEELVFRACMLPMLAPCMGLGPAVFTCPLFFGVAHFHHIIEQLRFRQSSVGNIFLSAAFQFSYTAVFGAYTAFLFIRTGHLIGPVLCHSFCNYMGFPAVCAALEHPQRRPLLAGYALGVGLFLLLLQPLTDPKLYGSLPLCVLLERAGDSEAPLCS
# [4] = target: Trypsin (Sus scrofa, UniProt P00761); test: porcine trypsin inhibitors, dose response, selectivity assay for Rce1 protease inhibitor project, biochemical, quenched peptide fluorescence, cherry-pick (AID 488789)
# Chain of Trypsin (P00761 whole entry): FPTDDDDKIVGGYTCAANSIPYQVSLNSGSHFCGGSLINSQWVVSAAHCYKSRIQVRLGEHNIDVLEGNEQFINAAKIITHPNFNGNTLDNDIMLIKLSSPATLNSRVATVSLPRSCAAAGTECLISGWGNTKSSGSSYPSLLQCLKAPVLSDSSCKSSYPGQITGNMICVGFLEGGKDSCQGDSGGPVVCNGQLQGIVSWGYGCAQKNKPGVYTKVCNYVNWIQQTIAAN
# [5] = A cytotoxicity screen of small molecule inhibitors of the PhoP region in Salmonella typhi identified in the primary screen. [Related pubchem assays: 1850, 1864, 1985 ]; assay type: functional
# [6] = test system: Escherichia coli; test: microbe, parasite or virus in culture
# [7] = test system: Escherichia coli; test: microbe, parasite or virus in culture; remark: listed apart in the source
# [8] = target: Beta-2 adrenergic receptor (Homo sapiens, UniProt P07550); test: beta2AR agonists driving receptor internalization, dose response, cell-based, FAP fluorogen, flow cytometry, cherry pick 1 (AID 588763); assay type: functional
# Chain of Beta-2 adrenergic receptor (P07550 whole entry): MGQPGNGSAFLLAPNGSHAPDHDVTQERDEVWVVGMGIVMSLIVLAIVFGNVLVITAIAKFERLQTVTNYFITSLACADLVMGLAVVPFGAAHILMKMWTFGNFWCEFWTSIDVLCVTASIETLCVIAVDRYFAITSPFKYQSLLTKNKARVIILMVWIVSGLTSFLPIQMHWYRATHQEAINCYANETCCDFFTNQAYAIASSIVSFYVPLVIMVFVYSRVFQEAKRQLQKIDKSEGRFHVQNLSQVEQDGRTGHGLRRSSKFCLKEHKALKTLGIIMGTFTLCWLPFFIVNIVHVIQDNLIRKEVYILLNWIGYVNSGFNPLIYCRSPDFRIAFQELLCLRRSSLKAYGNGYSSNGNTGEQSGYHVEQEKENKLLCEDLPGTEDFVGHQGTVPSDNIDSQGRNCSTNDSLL
# [9] = target: T2, Type-1 angiotensin II receptor (Homo sapiens, UniProt P30556); test: AT1 receptor antagonists, dose response, selectivity assay for APJ receptor antagonist project, cell-based, uHTS hits (AID 463214); assay type: functional;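 note: antagonist potency against angiotensin II stimulated AT1 response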
# T2 sequence (P30556 whole entry): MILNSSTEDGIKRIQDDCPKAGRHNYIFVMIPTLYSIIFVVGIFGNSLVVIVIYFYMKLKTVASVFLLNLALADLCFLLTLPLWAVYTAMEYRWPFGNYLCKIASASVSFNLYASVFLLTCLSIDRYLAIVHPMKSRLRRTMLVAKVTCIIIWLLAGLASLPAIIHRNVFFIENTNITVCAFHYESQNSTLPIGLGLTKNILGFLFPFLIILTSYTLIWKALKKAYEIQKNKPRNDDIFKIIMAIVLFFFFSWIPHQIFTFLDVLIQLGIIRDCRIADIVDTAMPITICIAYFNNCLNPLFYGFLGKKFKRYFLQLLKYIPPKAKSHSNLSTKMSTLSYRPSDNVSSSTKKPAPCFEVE
# [10] = target: Beta-galactosidase (Escherichia coli, UniProt Q8VNN2); test: PubChem AID 485352; assay type: functional
# Chain of Beta-galactosidase (Q8VNN2 whole entry): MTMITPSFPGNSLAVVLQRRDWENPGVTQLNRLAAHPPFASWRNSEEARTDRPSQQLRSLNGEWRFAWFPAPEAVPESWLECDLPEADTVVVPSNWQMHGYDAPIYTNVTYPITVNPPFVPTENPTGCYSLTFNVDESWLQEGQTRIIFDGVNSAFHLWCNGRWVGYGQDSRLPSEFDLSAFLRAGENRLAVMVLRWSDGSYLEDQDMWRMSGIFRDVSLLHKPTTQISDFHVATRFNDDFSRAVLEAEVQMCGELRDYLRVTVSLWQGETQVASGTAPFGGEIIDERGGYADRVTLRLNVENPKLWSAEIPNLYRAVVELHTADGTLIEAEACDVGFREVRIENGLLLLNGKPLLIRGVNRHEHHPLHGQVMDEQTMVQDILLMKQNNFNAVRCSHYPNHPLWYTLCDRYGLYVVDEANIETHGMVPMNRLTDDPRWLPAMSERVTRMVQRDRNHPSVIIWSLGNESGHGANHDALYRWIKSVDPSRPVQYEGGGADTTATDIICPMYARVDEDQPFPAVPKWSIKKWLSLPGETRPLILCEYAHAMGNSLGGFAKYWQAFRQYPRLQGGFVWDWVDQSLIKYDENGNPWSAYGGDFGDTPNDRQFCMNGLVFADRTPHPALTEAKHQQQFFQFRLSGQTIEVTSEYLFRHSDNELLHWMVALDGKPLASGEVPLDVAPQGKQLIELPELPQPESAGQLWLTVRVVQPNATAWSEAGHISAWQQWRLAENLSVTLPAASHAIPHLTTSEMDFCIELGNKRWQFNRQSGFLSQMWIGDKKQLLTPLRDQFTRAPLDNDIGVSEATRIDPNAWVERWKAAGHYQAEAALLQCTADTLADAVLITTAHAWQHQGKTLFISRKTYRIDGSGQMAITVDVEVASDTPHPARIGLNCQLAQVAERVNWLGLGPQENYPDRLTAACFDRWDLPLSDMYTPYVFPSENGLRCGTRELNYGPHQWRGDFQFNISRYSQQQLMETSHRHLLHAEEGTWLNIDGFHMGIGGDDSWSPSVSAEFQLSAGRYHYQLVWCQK
# [11] = test system: Vero; test: cells; assay type: functional, cell-based; conditions: Chlorocebus sabaeus
# Chain of Voltage-gated inwardly rectifying potassium channel KCNH2 (Q12809 whole entry): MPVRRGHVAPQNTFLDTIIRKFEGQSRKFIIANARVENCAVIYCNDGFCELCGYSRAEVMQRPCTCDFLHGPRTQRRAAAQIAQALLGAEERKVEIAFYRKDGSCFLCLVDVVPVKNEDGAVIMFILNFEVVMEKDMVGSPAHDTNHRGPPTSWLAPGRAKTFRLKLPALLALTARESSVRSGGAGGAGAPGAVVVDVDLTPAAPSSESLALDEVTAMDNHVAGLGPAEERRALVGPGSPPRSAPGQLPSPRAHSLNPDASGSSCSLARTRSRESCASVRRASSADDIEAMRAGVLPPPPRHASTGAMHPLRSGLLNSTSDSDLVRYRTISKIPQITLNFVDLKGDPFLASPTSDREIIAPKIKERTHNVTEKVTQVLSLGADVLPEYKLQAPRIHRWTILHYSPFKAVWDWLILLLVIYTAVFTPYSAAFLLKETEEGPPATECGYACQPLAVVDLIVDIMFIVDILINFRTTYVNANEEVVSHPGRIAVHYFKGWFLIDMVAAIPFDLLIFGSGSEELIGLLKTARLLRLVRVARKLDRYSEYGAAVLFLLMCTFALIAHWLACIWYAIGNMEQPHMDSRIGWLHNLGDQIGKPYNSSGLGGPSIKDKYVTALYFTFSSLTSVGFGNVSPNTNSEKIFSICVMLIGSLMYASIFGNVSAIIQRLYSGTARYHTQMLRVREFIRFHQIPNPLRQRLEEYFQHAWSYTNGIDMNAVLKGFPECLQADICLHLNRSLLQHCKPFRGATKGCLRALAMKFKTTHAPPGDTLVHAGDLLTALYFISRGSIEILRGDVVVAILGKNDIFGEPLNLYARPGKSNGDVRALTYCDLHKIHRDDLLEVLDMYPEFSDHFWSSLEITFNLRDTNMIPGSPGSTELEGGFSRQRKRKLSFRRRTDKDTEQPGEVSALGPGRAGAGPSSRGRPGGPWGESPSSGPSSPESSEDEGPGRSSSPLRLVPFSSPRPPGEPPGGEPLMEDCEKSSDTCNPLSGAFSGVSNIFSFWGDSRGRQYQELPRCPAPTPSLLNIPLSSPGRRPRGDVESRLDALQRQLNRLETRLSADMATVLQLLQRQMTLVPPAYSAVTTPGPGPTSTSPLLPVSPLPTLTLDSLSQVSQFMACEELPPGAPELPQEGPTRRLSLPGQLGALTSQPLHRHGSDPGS
smiles,measurement,setting,value
CN1CCN(CC/C=C2/c3ccccc3Sc3ccc(S(=O)(=O)N(C)C)cc32)CC1,AC50,[1],2.51 µM (inconclusive)
COc1ccc(-n2nc(C(=O)NCC(=O)NCc3ccc(F)cc3)c3ccccc3c2=O)cc1,AC50,[2],5.21 µM (active)
same,AC50,[3],9.42 µM (active)
same,AC50,[4],9.62 µM (active)
O=C1OCCN1/N=C/c1ccc([N+](=O)[O-])o1 [FURAZOLIDONE],EC50,[5],> 50 µM (active)
same,AC50,[6],17.8 µM (active)
same,AC50,[7],24.4 µM (active)
C=CCn1c(CCNC(=O)c2cccs2)nnc1SCC(=O)c1cccc([N+](=O)[O-])c1,EC50,[8],0.133 µM (active)
O=C(COC(=O)c1cccnc1Cl)c1ccc(Cl)cc1Cl,IC50,[9],35.4 µM (not active)
same,EC50,[10],> 40 µM (inactive)
Cc1ccc2[nH]c(CN3CCC(CO)(CC4CCCCO4)CC3)c(C)c2c1 (stereo unspecified),IC50,[11],> 25 µM (active)
